Literature values in PMC5560747, “Computational-experimental approach to drug-target interaction mapping: A case study on kinase inhibitors” (PLoS Computational Biology, 2017).

Experiments:
Design in all cases: method as in Gao et al. [42]
[1] = test system: MKNK2 (MNK2); details: ref Gao et al. [42], cited from earlier work
[2] = test system: FMS; details: ref Gao et al. [42], cited from earlier work
[3] = test system: MAPKAPK5; details: ref Gao et al. [42], cited from earlier work
[4] = test system: PIM1; details: ref Gao et al. [42], cited from earlier work
[5] = test system: ROS1; details: ref Gao et al. [42], cited from earlier work
[6] = test system: CDC42BPA; details: ref Gao et al. [42], cited from earlier work
[7] = test system: CAMK2g; details: ref Gao et al. [42], cited from earlier work
[8] = test system: PDK1; details: ref Gao et al. [42], cited from earlier work
[9] = test system: ERK2; details: ref Gao et al. [42], cited from earlier work
[10] = test system: ALK; details: ref Gao et al. [42], cited from earlier work
[11] = biological target: FYN A (Homo sapiens, UniProt P06241); details: ref Gao et al. [42], cited from earlier work
[12] = biological target: LCK (Homo sapiens, UniProt P06239); details: ref Gao et al. [42], cited from earlier work
[13] = test system: PIM2; details: ref Gao et al. [42], cited from earlier work
[14] = test system: MAPK9; details: ref Gao et al. [42], cited from earlier work
[15] = test system: IRAK1; details: ref Gao et al. [42], cited from earlier work
[16] = test system: MINK1; details: ref Gao et al. [42], cited from earlier work
[17] = test system: JNK1; details: ref Gao et al. [42], cited from earlier work
[18] = test system: PKCa; details: ref Gao et al. [42], cited from earlier work
[19] = test system: AKT2; details: ref Gao et al. [42], cited from earlier work
[20] = test system: PLK1; details: ref Gao et al. [42]; cited from earlier work
[21] = test system: PLK3; details: ref Gao et al. [42], cited from earlier work
[22] = test system: STK24; details: ref Gao et al. [42], cited from earlier work
[23] = test system: PRKD2; details: ref Gao et al. [42], cited from earlier work
[24] = test system: BLK; details: ref Gao et al. [42], cited from earlier work
[25] = test system: CHK2; details: ref Gao et al. [42], cited from earlier work
[26] = test system: CSNK1G1; details: ref Gao et al. [42], cited from earlier work
[27] = test system: CLK2; details: ref Gao et al. [42], cited from earlier work
[28] = test system: TSSK2; details: ref Gao et al. [42], cited from earlier work
[29] = biological target: T1, Aurora A (Homo sapiens, UniProt O14965); details: ref Gao et al. [42], cited from earlier work
T1 construct: purchased SignalChem A28-18G-10
T1 sequence (O14965 1-403): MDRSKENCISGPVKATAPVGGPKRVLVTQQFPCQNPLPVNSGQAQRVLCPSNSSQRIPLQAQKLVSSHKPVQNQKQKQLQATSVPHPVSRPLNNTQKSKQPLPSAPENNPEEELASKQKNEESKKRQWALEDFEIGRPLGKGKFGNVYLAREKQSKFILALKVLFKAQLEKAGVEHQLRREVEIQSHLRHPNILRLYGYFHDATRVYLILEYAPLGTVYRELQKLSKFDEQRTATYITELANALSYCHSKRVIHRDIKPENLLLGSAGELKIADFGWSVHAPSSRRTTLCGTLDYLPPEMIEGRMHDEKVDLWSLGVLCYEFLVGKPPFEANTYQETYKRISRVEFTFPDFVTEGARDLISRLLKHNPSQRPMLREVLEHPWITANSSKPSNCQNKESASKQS

[30] = test system: JAK2; details: ref Gao et al. [42], cited from earlier work

LCK, sequence (P06239 whole entry): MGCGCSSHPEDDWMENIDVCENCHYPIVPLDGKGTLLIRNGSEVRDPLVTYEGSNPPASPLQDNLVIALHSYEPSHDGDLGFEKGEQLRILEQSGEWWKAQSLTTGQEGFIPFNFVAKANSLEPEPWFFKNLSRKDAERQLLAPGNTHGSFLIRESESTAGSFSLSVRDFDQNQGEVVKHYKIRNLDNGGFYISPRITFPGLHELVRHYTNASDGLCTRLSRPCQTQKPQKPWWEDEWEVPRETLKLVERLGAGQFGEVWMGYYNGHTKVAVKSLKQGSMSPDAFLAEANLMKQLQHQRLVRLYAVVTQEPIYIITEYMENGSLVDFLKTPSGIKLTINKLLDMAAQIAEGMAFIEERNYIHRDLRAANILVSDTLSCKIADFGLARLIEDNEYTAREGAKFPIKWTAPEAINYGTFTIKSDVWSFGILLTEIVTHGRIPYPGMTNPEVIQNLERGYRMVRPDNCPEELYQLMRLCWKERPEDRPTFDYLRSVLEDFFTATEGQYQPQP
FYN A, sequence (P06241 whole entry): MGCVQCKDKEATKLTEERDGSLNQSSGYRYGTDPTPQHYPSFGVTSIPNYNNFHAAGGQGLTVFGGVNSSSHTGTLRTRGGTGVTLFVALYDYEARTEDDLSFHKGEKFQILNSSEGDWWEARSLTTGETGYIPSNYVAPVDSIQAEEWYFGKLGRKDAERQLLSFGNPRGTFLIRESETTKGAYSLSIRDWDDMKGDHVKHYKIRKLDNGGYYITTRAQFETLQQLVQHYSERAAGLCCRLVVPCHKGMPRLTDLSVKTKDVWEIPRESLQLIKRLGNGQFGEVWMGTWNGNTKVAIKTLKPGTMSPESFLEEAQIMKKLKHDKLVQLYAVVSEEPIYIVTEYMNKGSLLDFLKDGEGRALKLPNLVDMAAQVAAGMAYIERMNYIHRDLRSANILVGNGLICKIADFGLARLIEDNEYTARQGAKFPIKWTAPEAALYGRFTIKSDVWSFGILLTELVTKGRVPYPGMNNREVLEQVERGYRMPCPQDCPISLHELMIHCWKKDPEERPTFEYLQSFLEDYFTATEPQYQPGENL

For COc1cc2nccc(Oc3ccc(NC(=O)Nc4cc(C)on4)c(Cl)c3)c2cc1OC [TIVOZANIB, Tivozanib], the “Gao et al. % of activity remaining at 1 µM” value ([1]; 1 µM) is listed as 105%, the “Gao et al. % of activity remaining at 10 µM” value ([1]; 10 µM) is listed as 64% and the “Gao et al. % of activity remaining at 1 µM” value ([2]; 1 µM) is listed as 0%. For the same compound, the “Gao et al. % of activity remaining at 10 µM” value ([2]; 10 µM) was 0%, the “Gao et al. % of activity remaining at 1 µM” value ([3]; 1 µM) was 99% and the “Gao et al. % of activity remaining at 10 µM” value ([3]; 10 µM) was 70%. For the same compound, the “Gao et al. % of activity remaining at 1 µM” value ([4]; 1 µM) was 95%, the “Gao et al. % of activity remaining at 10 µM” value ([4]; 10 µM) was 86% and the “Gao et al. % of activity remaining at 1 µM” value ([5]; 1 µM) was 24%. For the same compound, the “Gao et al. % of activity remaining at 10 µM” value ([5]; 10 µM) was 16%, the “Gao et al. % of activity remaining at 1 µM” value ([6]; 1 µM) was 116% and the “Gao et al. % of activity remaining at 10 µM” value ([6]; 10 µM) was 102%. For the same compound, the “Gao et al. % of activity remaining at 1 µM” value ([7]; 1 µM) was 108%, the “Gao et al. % of activity remaining at 10 µM” value ([7]; 10 µM) was 70% and the “Gao et al. % of activity remaining at 1 µM” value ([8]; 1 µM) was 110%. The “Gao et al. % of activity remaining at 10 µM” value ([8]; 10 µM) was 116%, the “Gao et al. % of activity remaining at 1 µM” value ([9]; 1 µM) was 103% and the “Gao et al. % of activity remaining at 10 µM” value ([9]; 10 µM) was 104%. The “Gao et al. % of activity remaining at 1 µM” value ([10]; 1 µM) was 83%, the “Gao et al. % of activity remaining at 10 µM” value ([10]; 10 µM) was 38% and the “Gao et al. % of activity remaining at 1 µM” value ([11]; 1 µM) was 5%. The “Gao et al. % of activity remaining at 10 µM” value ([11]; 10 µM) was 1%, the “Gao et al. % of activity remaining at 1 µM” value ([12]; 1 µM) was -2% and the “Gao et al. % of activity remaining at 10 µM” value ([12]; 10 µM) was 1%. The “Gao et al. % of activity remaining at 1 µM” value ([13]; 1 µM) was 114%, the “Gao et al. % of activity remaining at 10 µM” value ([13]; 10 µM) was 103% and the “Gao et al. % of activity remaining at 1 µM” value ([14]; 1 µM) was 104%. For the same compound, the “Gao et al. % of activity remaining at 10 µM” value ([14]; 10 µM) was 88%, the “Gao et al. % of activity remaining at 1 µM” value ([15]; 1 µM) was 82% and the “Gao et al. % of activity remaining at 10 µM” value ([15]; 10 µM) was 92%. For the same compound, the “Gao et al. % of activity remaining at 1 µM” value ([16]; 1 µM) was 71%, the “Gao et al. % of activity remaining at 10 µM” value ([16]; 10 µM) was 21% and the “Gao et al. % of activity remaining at 1 µM” value ([17]; 1 µM) was 120%. For the same compound, the “Gao et al. % of activity remaining at 10 µM” value ([17]; 10 µM) was 109%, the “Gao et al. % of activity remaining at 1 µM” value ([18]; 1 µM) was 108% and the “Gao et al. % of activity remaining at 10 µM” value ([18]; 10 µM) was 101%. For the same compound, the “Gao et al. % of activity remaining at 1 µM” value ([19]; 1 µM) was 105%, the “Gao et al. % of activity remaining at 10 µM” value ([19]; 10 µM) was 89% and the “Gao et al. % of activity remaining at 10 µM” value [20] was 75%. The “Gao et al. % of activity remaining at 1 µM” value ([21]; 1 µM) was 85%, the “Gao et al. % of activity remaining at 10 µM” value ([21]; 10 µM) was 87% and the “Gao et al. % of activity remaining at 1 µM” value ([22]; 1 µM) was 118%. For the same compound, the “Gao et al. % of activity remaining at 10 µM” value ([22]; 10 µM) was 78%, the “Gao et al. % of activity remaining at 1 µM” value ([23]; 1 µM) was 95% and the “Gao et al. % of activity remaining at 10 µM” value ([23]; 10 µM) was 103%. The “Gao et al. % of activity remaining at 1 µM” value ([24]; 1 µM) was 2%, the “Gao et al. % of activity remaining at 10 µM” value ([24]; 10 µM) was 0% and the “Gao et al. % of activity remaining at 1 µM” value ([25]; 1 µM) was 79%. The “Gao et al. % of activity remaining at 10 µM” value ([25]; 10 µM) was 30%, the “Gao et al. % of activity remaining at 1 µM” value ([26]; 1 µM) was 89% and the “Gao et al. % of activity remaining at 10 µM” value ([26]; 10 µM) was 57%. The “Gao et al. % of activity remaining at 1 µM” value ([27]; 1 µM) was 114%, the “Gao et al. % of activity remaining at 10 µM” value ([27]; 10 µM) was 99% and the “Gao et al. % of activity remaining at 1 µM” value ([28]; 1 µM) was 90%. The “Gao et al. % of activity remaining at 10 µM” value ([28]; 10 µM) was 78%, the “Gao et al. % of activity remaining at 1 µM” value ([29]; 1 µM) was 7% and the “Gao et al. % of activity remaining at 10 µM” value ([29]; 10 µM) was 7%. For the same compound, the “Gao et al. % of activity remaining at 1 µM” value ([30]; 1 µM) was 114% and the “Gao et al. % of activity remaining at 10 µM” value ([30]; 10 µM) was 114%.
